Test results from patent US20260008811A1, “BIOACTIVE PEPTIDES AND COMPOSITIONS COMPRISING THEM” (ESPIKEM S.R.L., priority 2019, published 2026).
Non-standard residues stand in square brackets, D forms with d.

Legend:
Type I procollagen = test: Western blot of type I procollagen / soluble type I collagen in fibroblast cultures after 72 hours of treatment; assay type: cell-based, human; conditions: fibroblasts, peptide 20 mM, no FBS, compared with TGF-β1, SA1III, Peptide 1, Peptide 2 (FIG. 1)
From the text: Neonatal human dermal fibroblasts (NHDF) have been obtained from Lonza. Cultures of adult dermal fibroblasts have been prepared from cutaneous skin biopsies of healthy donors having different ages, as described in Pani et al. J. Alzheimer's Dis. (2009) 18:829-41, C6 ([…]), C3 (person) and C12 (person). A written informed consent to use these dermal cells was obtained from all the donor subjects involved, according to the Guidelines indicated by the Ethics Committee of the Careggi University Hospital (Florence, Italy) and by the Helsinki Declaration of 1975, as reviewed in the 1983. All cell cultures have been subjected to a similar number of steps, from 6 to 9, at the beginning of the experiments, and were preserved in the modified Dulbecco Eagle culture medium (DMEM, Lonza) added with FBS 10% (Gibco), 100 units/ml of penicillin G, 0.05 mg/ml of streptomycin and glutamine 2 mM (PAN-Biotech GmbH), at 37° C. in a humidified incubator containing 5% of CO2.
The cells were seeded in 12-wells plates (30000 cells per well) and treated the day after with the peptide AAT11RI (20 mM). […]
All treatments have been carried out in the absence of FBS to avoid interferences in the electrophoretic migration. […] The protein content in the lysates was measured using the Bio-Rad DC protein assay kit. […]

extracellular collagen = conditions: fibroblasts obtained from subjects of various ages; cited from earlier work

Substance | ability to increase the concentration of procollagen in vitro (Type I procollagen) | levels of extracellular collagen (extracellular collagen)
Ac-DAsn-DVal-DVal-DLys-NH2 (Ac-[dN][dV][dV][dK]-NH2) [AAT11RI] | surprisingly higher than all the other products tested | 
SA1-III: C-terminal peptide fragment 409-418 of the serpin A1 molecule, positive control (MGKVVNPTQK) |  | increased levels of extracellular collagen
